Values of other authors as cited in US12285520B2, “Product and manufacturing process for a gum” (McNeil AB, priority 2020, dated 2025).

Settings: nicotine; stated as general knowledge, no experiment described

For CN1CCCC1c1cccnc1 (stereo not shown) [nicotine], the pKa is given as “approximately 7.8”.
